Results from patent publication US20250255882A1, “TREATMENT OF CARDIAC CONDITION RELATED COGNITIVE DYSFUNCTION” (The Trustees of Columbia University in the City of New York, priority 2024, published 2025).

What was measured:
[1] = tested on: mouse model of HF (myocardial infarction, MI); test: open field test and elevated plus maze (EPM) test; type: in vivo; conditions: MI mice, treated
From the text: FIGS. 2A-2G illustrate a mouse model of heart failure (myocardial infarction) that is associated with cognitive dysfunction. […] One-way analysis of variance (ANOVA) was used to compare the difference between the six groups in FIGS. 2B, 2C, 2E and 2F. Tukey's test was used for multiple comparisons; two-way ANOVA was used in FIG. 2D. […] All statistical tests were two sided with the data derived from biologically independent samples.
Because of the complexity of the clinical manifestation of HF patients, the mouse model of HF (myocardial infarction, MI) was used with reduced ejection fraction to evaluate the mechanisms of CD. The open field test and elevated plus maze (EPM) test were used to evaluate the behavioral phenotypes, and spontaneous exploratory activity in the mice. In the open field test, mice were placed at the center of a chamber and allowed to explore for 6 min. […] In the EPM test, MI mice spent […] time in the open arms of the EPM (FIG. 2B) compared to SHAM (0.22±0.04 versus 0.14±0.02; P<0.05). […] As a control, the effects of a Rycal®, ARM036, was studied.

[2] = tested on: mouse model of HF (myocardial infarction, MI); test: novel object recognition test (hippocampal-dependent short-term memory); type: in vivo; conditions: MI mice, treated; MI 15%±4%, SHAM 48%±5%
From the text: (§1) One-way analysis of variance (ANOVA) was used to compare the difference between the six groups in FIGS. 2B, 2C, 2E and 2F. Tukey's test was used for multiple comparisons; two-way ANOVA was used in FIG. 2D. […] All statistical tests were two sided with the data derived from biologically independent samples.
Next, a novel object recognition test was used to evaluate hippocampal-dependent short-term memory. (see Liu, X. et al. Role of leaky neuronal ryanodine receptors in stress-induced cognitive dysfunction. Cell 150, 1055-1067 (2012); and Bevins, R. A. & Besheer, J. Object recognition in rats and mice: a one-trial non-matching-to-sample learning task to study ‘recognition memory’. Nat. Protoc. 1, 1306-1311 (2006)).

[3] = tested on: mouse model of HF (myocardial infarction, MI); test: MWM test (long-term spatial learning and memory) with probe trial; type: in vivo; conditions: MI mice, treated; for latency to find and reach the hidden platform: day 4 training trials, MI 30±1 s, SHAM 21±2 s
Experimental: as §1
A MWM test was performed to assess hippocampal-dependent long-term spatial learning and memory.
A probe trial was performed on day 5 of the MWM test.

[4] = tested on: MI mice; test: long-term potentiation (fEPSPs) in hippocampal slices; type: in vivo, mouse; conditions: slices from treated MI mice; MI decreased LTP versus SHAM
Experimental: (§2) FIG. 4A is a schematic representation of a hippocampal brain slice for LTP experiments and the positioning of the stimulating and recording electrodes.
Field excitatory postsynaptic potentials (fEPSPs) were evaluated at the Schaffer collateral using a bipolar electrode placed at the CA3 and recording at the CA1 (FIG. 4A). […] Importantly, MI and treatment with the various compounds after MI had no effect on basal synaptic transmission determined by the input-output curves (I-O; P=0.5; FIG. 4D).

[5] = tested on: MI mice; test: hippocampal FDG metabolism by microPET; type: in vivo, mouse; conditions: treated MI mice; percentage of the FDG uptake in the SHAM mice (SHAM 100±3, MI 70±3)
From the text: as §2
Thereafter, [^18F]fluorodeoxyglucose (FDG) with positron emission tomography (PET) was used to measure energy consumption in neurons, which reflects neuronal communication signals and the integrative local neuronal activity. Deteriorating brain glucose metabolism measured by FDG-PET has been used as a clinical marker for Alzheimer's disease diagnosis. Thus, hippocampal FDG metabolism was evaluated in the experimental groups (FIGS. 4E and 4F).

[6] = tested on: adrenergic pathway; test: hippocampal norepinephrine levels and PKA activity; type: in vivo, mouse; conditions: treated versus untreated MI mice
Experimental: The hippocampal levels of norepinephrine and PKA activity were measured.

[7] = tested on: TGF-β pathway; test: immunoblots of TGF-β, phosphorylated SMAD3 and NOX2 binding to RyR2 in hippocampi; type: in vivo, mouse; conditions: hippocampi of treated MI mice
From the text: FIG. 12A includes immunoblots showing expressing levels of TGF-β, phosphorylated SMAD3, total SMAD3, and NOX2 binding to RyR2 in the hippocampi of controls (n=4) and HF patients (n=9). FIG. 12B includes bar graphs depicting the ratio of TGF-β expression normalized to GAPDH, phosphorylated SMAD3 to total SMAD3 and NOX2 binding to RyR2 (IP RyR2). The same quantity of proteins was loaded on two separate gels and blotted separately for SMAD3 and pSMAD3. Individual values are shown with mean±SEM (t-test * p<0.05, Controls vs. HF patients). […] FIG. 12D includes bar graphs depicting the ratio of TGF-β expression normalized to GAPDH, phosphorylated SMAD3 to total SMAD3 and NOX2 binding to RyR2 (IP RyR2). The same quantity of proteins was loaded on two separate gels and blotted separately for SMAD3 and pSMAD3. Individual values are shown with mean±SEM. […] All statistical tests were two-sided. Data are derived from biologically independent samples.
TGF-β has been implicated in CNS disorders including Alzheimer's disease.

[8] = blood-brain barrier crossing
[9] = biological target: RyR2 (Homo sapiens, UniProt Q92736); conditions: previously identified binding site; cited from earlier work
[10] = biological target: RyR2 (Mus musculus, UniProt E9Q401); test: caffeine-induced Ca2+ release in primary hippocampal neurons; type: cell-based; set-up: representative images of 14-d cultured hippocampal neurons stimulated with 10 mM caffeine; endogenous in cells; host or cells: primary hippocampal neurons, 14 d in culture; conditions: 10 mM caffeine; hippocampal neurons treated with the adrenergic agonist alone
Chain of RyR2 (Mus musculus, UniProt E9Q401) (E9Q401 whole entry): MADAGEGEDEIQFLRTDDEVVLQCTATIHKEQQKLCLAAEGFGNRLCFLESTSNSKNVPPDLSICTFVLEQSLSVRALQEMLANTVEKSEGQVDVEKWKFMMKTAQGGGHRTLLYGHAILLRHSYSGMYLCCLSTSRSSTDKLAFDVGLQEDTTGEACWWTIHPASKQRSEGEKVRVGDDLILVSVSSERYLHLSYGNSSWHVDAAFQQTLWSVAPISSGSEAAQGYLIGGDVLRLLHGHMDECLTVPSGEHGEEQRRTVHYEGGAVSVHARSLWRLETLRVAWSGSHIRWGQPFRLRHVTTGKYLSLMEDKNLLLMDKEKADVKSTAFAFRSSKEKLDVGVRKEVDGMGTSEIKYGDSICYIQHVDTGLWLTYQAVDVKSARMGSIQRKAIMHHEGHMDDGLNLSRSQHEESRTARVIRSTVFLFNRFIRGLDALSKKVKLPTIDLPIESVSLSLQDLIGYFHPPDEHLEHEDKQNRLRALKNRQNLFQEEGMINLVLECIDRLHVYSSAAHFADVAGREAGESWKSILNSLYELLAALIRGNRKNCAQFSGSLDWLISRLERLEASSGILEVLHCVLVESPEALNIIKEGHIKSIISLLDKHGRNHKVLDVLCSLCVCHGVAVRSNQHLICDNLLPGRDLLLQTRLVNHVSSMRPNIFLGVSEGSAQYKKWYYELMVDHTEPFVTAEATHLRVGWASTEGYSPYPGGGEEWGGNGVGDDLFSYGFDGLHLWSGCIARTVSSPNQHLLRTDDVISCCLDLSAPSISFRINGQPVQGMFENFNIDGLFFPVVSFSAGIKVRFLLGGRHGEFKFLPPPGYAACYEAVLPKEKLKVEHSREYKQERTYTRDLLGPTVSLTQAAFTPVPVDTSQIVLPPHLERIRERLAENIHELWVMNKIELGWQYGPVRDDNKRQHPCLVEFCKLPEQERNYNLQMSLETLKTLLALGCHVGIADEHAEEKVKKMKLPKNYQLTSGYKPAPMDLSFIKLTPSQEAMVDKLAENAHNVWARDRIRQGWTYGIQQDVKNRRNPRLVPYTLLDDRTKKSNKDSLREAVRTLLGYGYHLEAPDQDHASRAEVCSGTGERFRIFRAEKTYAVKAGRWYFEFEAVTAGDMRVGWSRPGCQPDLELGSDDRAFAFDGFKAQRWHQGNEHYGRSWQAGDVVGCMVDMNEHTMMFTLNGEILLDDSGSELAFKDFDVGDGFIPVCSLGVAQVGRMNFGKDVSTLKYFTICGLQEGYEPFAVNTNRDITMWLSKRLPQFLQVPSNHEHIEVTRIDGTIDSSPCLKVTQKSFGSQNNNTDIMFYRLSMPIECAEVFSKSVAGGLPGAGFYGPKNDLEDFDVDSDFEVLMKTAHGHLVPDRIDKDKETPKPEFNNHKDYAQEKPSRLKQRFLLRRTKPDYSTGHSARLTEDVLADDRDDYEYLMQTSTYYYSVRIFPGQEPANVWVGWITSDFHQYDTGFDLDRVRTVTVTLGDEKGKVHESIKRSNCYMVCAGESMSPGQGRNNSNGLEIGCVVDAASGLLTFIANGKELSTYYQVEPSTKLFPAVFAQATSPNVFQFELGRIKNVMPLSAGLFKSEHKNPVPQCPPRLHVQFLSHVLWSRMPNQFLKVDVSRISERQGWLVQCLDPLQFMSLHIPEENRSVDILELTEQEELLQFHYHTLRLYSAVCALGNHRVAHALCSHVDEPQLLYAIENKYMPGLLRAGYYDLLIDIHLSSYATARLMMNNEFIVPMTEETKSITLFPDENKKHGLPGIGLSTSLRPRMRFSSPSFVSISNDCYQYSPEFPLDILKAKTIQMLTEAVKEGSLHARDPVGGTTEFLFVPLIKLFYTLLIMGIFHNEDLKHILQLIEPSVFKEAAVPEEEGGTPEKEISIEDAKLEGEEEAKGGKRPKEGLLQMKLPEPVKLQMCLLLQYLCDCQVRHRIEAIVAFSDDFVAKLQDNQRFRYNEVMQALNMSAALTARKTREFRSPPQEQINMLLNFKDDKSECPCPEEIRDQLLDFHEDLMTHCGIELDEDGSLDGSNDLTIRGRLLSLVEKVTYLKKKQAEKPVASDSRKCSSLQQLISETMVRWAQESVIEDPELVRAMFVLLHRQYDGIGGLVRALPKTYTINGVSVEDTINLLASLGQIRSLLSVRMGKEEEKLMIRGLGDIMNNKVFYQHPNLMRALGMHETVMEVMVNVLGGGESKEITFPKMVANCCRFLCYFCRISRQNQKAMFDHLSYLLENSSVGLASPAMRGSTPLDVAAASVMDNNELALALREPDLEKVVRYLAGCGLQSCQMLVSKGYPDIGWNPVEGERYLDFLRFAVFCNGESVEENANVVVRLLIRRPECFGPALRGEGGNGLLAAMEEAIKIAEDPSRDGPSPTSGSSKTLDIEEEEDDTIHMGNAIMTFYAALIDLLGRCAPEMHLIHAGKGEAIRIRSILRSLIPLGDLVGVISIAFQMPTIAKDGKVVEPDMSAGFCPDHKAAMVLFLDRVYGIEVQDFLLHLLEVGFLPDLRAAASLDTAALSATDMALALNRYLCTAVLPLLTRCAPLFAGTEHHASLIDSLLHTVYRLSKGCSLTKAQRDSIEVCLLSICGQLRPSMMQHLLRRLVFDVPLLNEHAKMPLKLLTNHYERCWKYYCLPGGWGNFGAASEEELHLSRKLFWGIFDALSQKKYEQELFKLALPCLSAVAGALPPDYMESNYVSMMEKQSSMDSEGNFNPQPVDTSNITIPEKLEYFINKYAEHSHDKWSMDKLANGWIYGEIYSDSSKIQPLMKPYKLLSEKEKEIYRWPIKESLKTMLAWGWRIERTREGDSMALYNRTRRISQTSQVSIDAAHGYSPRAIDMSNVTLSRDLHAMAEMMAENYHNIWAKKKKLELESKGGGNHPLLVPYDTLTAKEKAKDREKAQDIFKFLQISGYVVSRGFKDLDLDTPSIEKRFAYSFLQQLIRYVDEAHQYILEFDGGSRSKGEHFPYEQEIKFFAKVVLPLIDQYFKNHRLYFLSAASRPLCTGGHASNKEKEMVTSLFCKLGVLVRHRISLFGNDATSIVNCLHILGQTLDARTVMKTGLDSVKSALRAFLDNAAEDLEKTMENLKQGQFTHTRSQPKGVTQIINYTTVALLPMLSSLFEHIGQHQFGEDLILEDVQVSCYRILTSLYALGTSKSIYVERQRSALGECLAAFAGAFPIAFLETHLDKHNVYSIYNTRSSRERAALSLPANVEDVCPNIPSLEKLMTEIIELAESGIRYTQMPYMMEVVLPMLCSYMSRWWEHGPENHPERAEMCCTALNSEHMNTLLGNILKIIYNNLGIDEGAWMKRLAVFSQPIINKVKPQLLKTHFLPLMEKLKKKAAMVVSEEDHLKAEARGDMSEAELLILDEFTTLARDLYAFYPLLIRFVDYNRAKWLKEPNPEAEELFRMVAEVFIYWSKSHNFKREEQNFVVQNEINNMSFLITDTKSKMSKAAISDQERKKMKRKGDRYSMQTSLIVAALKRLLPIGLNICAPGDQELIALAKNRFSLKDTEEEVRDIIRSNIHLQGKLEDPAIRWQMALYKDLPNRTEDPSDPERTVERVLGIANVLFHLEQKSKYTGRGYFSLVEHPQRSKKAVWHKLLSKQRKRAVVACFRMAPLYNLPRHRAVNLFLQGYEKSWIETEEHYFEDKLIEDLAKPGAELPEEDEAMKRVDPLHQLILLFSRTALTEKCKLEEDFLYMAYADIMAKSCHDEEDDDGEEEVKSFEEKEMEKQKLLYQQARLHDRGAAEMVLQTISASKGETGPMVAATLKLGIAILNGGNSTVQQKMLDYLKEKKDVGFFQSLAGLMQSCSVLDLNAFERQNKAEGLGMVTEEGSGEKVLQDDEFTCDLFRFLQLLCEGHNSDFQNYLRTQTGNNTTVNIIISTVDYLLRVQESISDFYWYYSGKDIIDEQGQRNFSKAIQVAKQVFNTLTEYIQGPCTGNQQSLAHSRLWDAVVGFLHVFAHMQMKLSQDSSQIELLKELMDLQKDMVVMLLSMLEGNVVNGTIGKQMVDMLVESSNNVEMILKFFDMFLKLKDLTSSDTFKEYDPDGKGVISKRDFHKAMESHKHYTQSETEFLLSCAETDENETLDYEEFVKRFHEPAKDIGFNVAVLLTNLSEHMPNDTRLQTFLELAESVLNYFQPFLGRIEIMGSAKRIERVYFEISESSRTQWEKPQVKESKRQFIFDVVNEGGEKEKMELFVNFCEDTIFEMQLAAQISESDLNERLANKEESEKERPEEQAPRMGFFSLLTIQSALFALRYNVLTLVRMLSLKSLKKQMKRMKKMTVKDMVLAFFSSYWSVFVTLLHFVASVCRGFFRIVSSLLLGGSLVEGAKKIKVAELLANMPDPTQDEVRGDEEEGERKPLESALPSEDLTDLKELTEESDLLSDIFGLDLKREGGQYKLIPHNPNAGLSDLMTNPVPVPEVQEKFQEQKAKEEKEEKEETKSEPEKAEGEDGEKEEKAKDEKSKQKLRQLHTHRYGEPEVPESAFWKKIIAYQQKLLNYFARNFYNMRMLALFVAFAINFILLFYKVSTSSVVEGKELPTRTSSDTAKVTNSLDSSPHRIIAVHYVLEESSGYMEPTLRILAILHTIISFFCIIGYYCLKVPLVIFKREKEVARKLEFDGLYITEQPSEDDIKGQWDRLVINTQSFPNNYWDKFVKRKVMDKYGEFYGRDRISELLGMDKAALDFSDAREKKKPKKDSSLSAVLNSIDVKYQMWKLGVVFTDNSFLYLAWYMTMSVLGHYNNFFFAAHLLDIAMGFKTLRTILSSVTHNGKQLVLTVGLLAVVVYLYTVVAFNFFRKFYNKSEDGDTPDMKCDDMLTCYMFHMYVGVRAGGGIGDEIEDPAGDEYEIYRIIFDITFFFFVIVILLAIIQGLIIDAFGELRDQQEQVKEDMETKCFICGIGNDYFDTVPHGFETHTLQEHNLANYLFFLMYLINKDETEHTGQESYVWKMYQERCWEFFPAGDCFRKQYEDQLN
Experimental: FIG. 5A presents representative images of 14-d cultured hippocampal neurons stimulated with 10 mM caffeine. For each condition, the Ca^2+ levels are shown at baseline, during stimulation and at recovery. […] Individual values are shown with the mean±s.e.m. […] Scale bar, 10 μm. A reduction in caffeine-induced Ca^2+ release indicates a Ca^2+ depleted ER due to persistent RyR2-mediated Ca^2+ leak. Data are derived from biologically independent samples. All statistical tests were two sided.
To determine whether the activation of the adrenergic pathway indeed causes neuronal RyR2-mediated ER Ca^2+ leak, caffeine (10 mM), a well characterized RyR agonist, was used to assess RyR2 function specifically in hippocampal neurons without interference of other cell types such as glial cells or astrocytes.

COc1ccc2c(c1)CN(C(=O)C(=O)O)CCS2 [ARM036]
abnormal behaviors in open field test (time center versus periphery) and EPM test (time open-arm versus closed-arm) [1]: no effect | discrimination index [2]: 15%±3% | latency to find and reach the hidden platform [3]: 29 ± 3 s | LTP (hippocampal synaptic plasticity) [4]: no effect | hippocampal FDG metabolism [5]: 80±8 | PKA activity [6]: no effect | brain norepinephrine [6]: no effect | NOX2 binding to hippocampal RyR2 [7]: no effect | TGF-β levels [7]: no effect | phosphorylation of SMAD3 [7]: no effect | crossing of the blood-brain barrier (BBB) [8]: does not cross the blood-brain barrier

COc1ccc2c(c1)CN(Cc1ccc(C(=O)O)cc1)CCS2 [Compound 1]
effect on primed state of leaky channels [9]: reverse the primed state of leaky channels toward a fully closed state

COc1ccc2c(c1)CN(C)CCS2 [S107]
target crossings ([3]; 60-s probe trial day 5, MI 2.4±0.3, SHAM 4.6±0.3): 4.2±0.3 | time spent in the target quadrant ([3]; 60-s probe trial day 5, MI 17±1 s, SHAM 25±2 s): 26 ± 2 s | latency to find and reach the hidden platform [3]: 20 ± 2 s | hippocampal FDG metabolism [5]: 114±13 | PKA activity [6]: no effect | brain norepinephrine [6]: no effect | crossing of the blood-brain barrier (BBB) [8]: BBB-permeant

CC(C)NCC(O)c1ccc(O)c(O)c1 (centres unmarked) [isoproterenol]
caffeine-induced Ca2+ release [10]: small Ca^2+ release
